Data as given in patent publication US5608143A, “External regulation of gene expression” (E. I. Du Pont de Nemours and Company, priority 1994, dated 1997).

Tests used:
[1] = system: 2-1 gene (In 2-1 mRNA); assay: RNA slot blot / Northern analysis of 2-1 mRNA in roots of chemically treated corn; format: in vivo, corn (Missouri 17); design: In2-1 induction level: key to the marks not given beside the values
Experimental: Missouri 17 corn seeds were surface sterilized by soaking them in a solution of 10% commercial bleach and 0.1% sodium dodecylsulfate (SDS) for 30 minutes. Seeds were then rinsed thoroughly in a buchner funnel with sterile distilled water and prepared for germination by placing them onto 5-6 layers of moist sterile paper towels in a 8"×10" glass baking tray. The tray was covered with aluminum foil and placed in the dark in a 30° C. incubator for 48-72 hours to allow the seeds to germinate. After germination, seedlings were grown hydroponically in an apparatus consisting of a sheet of 8 mesh stainless steel wire gauze suspended over the top of a 2 liter glass beaker filled with sterile half strength Hoagland's solution (referred to 0.5× Hoagland's) so that the roots extended through the mesh and into the media. The hydroponic apparatus was aerated by introducing humidified air into the bottom of the beaker with a gas diffusing stone commonly used in tropical fish aquariums. The apparatus was covered with a loose-fitting sheet of aluminum foil and placed in a reach-in growth chamber illuminated by both fluorescent and incandescent lamps at an intensity of 4400 lux. Seedlings were grown at 28° C., 75% relative humidity using a 16 hour day/8 hour night cycle. After two days, the foil was removed and plants were grown for an additional 5-6 days. Any 0.5× Hoagland's lost to evaporation was replenished every 2-3 days. […] Plants were then allowed to grow for six additional hours prior to harvest.
A nitrocellulose filter (Schlicher and Schull BA-85) was wetted by soaking it twice for 10 minutes in water, followed by a 10 minute soak in 1M ammonium acetate. The filter was then placed into a Slot Blot apparatus (Schleicher and Schuell, Inc., Keene, N.H. 03431, CAT #SRC072/0). […] Forty pl of denaturation buffer (30% formaldehyde, 100 mM sodium phosphate pH 6.8) were added to each sample and all samples were then incubated at 65° C. for 20-30 minutes and quick-cooled in an ice slurry for 5 minutes. Thirty μl of 4M ammonium acetate were added to each sample and the 150 μl samples were added to slots in the blotting cell with the aid of a 10-15 mm Hg vacuum. The filter was removed from the blotting cell, air dried and baked for 2 hours at 70° C. in vacuo.
The filter was cut into six pieces such that each piece had one slot cox.raining RNA from each of the three treatments described above. One of the filter pieces was incubated with 10 ml of prehybridization buffer (50% deienized formamide, 5× SSC, 5× Denhardt's, 100 μg/ml denatured calf thymus DNA, 20 μg/ml homopoly(A), 40 mM sodium phosphate pH 6.8 and 0.5% BSA) in a heat-sealable bag for 6 hours at 42° C. with occasional mixing. The filter piece was then hybridized with nick-translated pIn 2-1. This was performed by discarding the prehybridization solution from the bag and replacing it with 2.5 ml of hybridization buffer (50% deionized formamide, 5× SSC, 100 μg/ml denatured calf thymus DNA, 20 μg/ml homopoly(A) and 40 mM sodium phosphate, pH 6.8) containing 1.25×10^7 cpm of nick translated 2-1 plasmid described above. Nick-translated plasmid was denatured by boiling for 10 minutes followed by quick-cooling on ice. The filter was then hybridized overnight at 42° C. with occasional mixing.

[2] = system: 5-2 gene (In 5-2 mRNA); assay: RNA slot blot / Northern analysis of 5-2 mRNA in roots of chemically treated corn; format: in vivo, corn (Missouri 17); design: In5-2 induction level: key to the marks not given beside the values
Experimental: Details of the techniques used to perform Example 3 are presented in Example 1. The cDNA library made from poly (A)+ RNA from the roots of N-(aminocarbonyl)-2-chlorobenzenesulfonamide-treated Missouri 17 corn plants described in Example 1 was analyzed for additional cDNA clones representing N-(aminocarbonyl)-2-chlorobenzenesulfonamide-induced mRNAs. […] This colony was designated In 5-2.
A small scale plasmid preparation was performed on an overnight culture of In 5-2 and an aliquot of the plasmid, designated pIn 5-2, was nick-translated as described earlier. Slot blot analysis was performed as described in Example 1 using nick-translated In 5-2 plasmid. […] This plasmid was designated pIn 5-2.
An aliquot of the small scale plasmid preparation of pIn 5-2 was digested to completion with PSt I and analyzed by agarose gel electrophoresis. The cDNA insert of the plasmid was excised as a single 420 bp Pst I fragment. Plasmid pin 5-2 was nick-translated and used to probe a Northern blot of RNA from both untreated and N-(aminocarbonyl)-2-chlorobenzenesulfonamide-treated roots.
The ability at various substituted benzenesulfonamides and related compound to induce the expression of the 2-1, 2-2, and 5-2 genes of Missouri 17 corn was evaluated. Corn seeds were germinated and grown hydroponically in 2 liter beakers as described in Example 1. On the tenth day, plants were transferred into fresh 0.5× Hoagland's solution containing the chemical to be tested. Root tissue was harvested from the plants after six hours of chemical treatment, quick-frozen by immersion in liquid N2, and stored at -80° C. until analyzed.
Details of the RNA isolation and slot blot analysis procedures are presented in Example 1. Total RNA was prepared from the root tissue of plants that had been treated with various chemicals using the previously described guanidine thiocyanate procedure. Replicate blots, each consisting of 2 μg of total RNA from tissues treated with each of the chemicals shown in tables 8 and 9, were prepared on nitrocellulose membranes using a Minifold II® Slot-blotter (Schleicher & Schuell) following the manufacturer's recommeneded procedure. Replicate blots were prehybridized and hybridized with cDNA probes made by nick translation of the purified cDNA inserts from plasmid pIn 2-1, pIn 2-2-3, and pIn 5-2. Slot blots were washed as described in Example 1 and exposed to Kodak X-OMAT XAR-5 film for 24 hours at -80° C. using a single Du Pont Lightning Plus intensifying screen. Film was developed using a Kodak X-OMAT film processor. The abililty of a chemical to induce the mRNA encoded by the three inducible genes was evaluated in one of two ways. Qualitative evaluation was performed by direct visual comparison of the autoradiographic signal intensities on the films for the hybridization of each probe to the different RNA samples. Quantitative evaluation was performed by cutting each slot containing hybridized RNA from the blot, immersing it in 2 ml of Du Pont ECONOFLUOR® scintillation cocktail and counting the radioactivity in each slot in a scintillation counter. The net amount of radioactivity hybridizing to N-(aminocarbonyl)-2-chlorobenzenesulfonamide-treated RNA after subtraction of radioactivity hybridizing to untreated RNA is presented in Table 15.

[3] = hydroponic application, 100 ppm
[4] = hydroponic treatment, corn roots

NC(=O)NS(=O)(=O)c1ccccc1Cl
hybridization of pIn 2-1 to root RNA (RNA slot blot) ([1]; hydroponic 0.2 g/liter, six hours, corn roots): strongly hybridized
In2-1 induction level [1, 3]: +++++
hybridization of pIn 2-1 to root poly(A)+ RNA (Northern blot) [1, 4]: single intense hybridization signal
In5-2 induction level [2, 3]: +++++
hybridization of pIn 5-2 to root RNA (Northern blot) [2, 4]: induced in root tissue by chemical treatment
hybridization of pIn 5-2 to root RNA (slot blot) [2, 4]: hybridizes strongly
